Data as given in patent publication US20090311217A1, “3-SUBSTITUTED-1H-INDOLE COMPOUNDS, THEIR USE AS MTOR KINASE AND PI3 KINASE INHIBITORS, AND THEIR SYNTHESES” (priority 2008, published 2009).
Like-named read-outs stand apart in the source and are kept apart here.

Key:
Type in all cases: biochemical
PI3K-alpha = PI3K-alpha (Homo sapiens, UniProt P42336); experiment: PI3K-alpha fluorescence polarization assay
PI3K-gamma = PI3K-gamma (Homo sapiens, UniProt P48736); experiment: PI3K-gamma fluorescence polarization assay; conditions: PI3Kγ Avg. IC50
Chain of PI3K-gamma (P48736 whole entry, species assumed, the tested form may be a part): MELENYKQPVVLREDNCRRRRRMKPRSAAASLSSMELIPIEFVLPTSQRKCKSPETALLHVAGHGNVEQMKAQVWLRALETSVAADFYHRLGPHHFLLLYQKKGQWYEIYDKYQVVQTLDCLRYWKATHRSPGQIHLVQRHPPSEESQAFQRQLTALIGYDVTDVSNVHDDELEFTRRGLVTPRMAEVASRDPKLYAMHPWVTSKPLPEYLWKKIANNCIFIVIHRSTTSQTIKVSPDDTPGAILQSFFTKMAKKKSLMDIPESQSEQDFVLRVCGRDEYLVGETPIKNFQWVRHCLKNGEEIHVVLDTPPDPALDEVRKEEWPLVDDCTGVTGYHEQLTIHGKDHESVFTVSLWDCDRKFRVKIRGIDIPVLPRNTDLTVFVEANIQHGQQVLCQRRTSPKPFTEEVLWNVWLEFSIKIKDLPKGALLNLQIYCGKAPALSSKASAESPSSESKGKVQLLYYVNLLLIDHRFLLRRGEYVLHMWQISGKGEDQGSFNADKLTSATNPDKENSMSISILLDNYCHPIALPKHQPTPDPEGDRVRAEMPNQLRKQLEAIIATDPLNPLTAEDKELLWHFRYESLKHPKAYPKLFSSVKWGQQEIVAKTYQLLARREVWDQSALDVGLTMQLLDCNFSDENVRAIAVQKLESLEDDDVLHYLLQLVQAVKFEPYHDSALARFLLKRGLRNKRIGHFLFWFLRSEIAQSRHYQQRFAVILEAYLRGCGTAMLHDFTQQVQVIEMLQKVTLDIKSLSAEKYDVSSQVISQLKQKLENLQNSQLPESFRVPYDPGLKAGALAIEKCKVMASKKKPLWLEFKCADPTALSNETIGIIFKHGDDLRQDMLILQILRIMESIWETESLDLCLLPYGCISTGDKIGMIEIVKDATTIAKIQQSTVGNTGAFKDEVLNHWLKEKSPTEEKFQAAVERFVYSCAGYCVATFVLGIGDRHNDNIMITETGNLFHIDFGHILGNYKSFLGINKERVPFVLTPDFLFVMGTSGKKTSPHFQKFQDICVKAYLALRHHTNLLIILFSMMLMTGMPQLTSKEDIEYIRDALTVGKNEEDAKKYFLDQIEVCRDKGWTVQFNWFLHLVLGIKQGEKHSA
Procedure, shortened: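 FP displacement read-out: 100 nM GST-GRP1 PH domain plus 5 nM BODIPY-TMR-IP4 added after EDTA stop. Preceding kinase step: 5 ng enzyme, diC8-PI(4,5)P2 2.5 μM, ATP 25 μM, MgCl2 2.5 mM, HEPES 5 mM pH 7, one hour, 25° C.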

human TOR = molecular target: T1, human TOR (Homo sapiens, UniProt P42345); experiment: mTOR enzyme assay (DELFIA, His6-S6K substrate); conditions: read-out: mTOR Kinase Avg. IC50
T1 construct: FLAG

Chain of PI3K-alpha (P42336 whole entry, species assumed): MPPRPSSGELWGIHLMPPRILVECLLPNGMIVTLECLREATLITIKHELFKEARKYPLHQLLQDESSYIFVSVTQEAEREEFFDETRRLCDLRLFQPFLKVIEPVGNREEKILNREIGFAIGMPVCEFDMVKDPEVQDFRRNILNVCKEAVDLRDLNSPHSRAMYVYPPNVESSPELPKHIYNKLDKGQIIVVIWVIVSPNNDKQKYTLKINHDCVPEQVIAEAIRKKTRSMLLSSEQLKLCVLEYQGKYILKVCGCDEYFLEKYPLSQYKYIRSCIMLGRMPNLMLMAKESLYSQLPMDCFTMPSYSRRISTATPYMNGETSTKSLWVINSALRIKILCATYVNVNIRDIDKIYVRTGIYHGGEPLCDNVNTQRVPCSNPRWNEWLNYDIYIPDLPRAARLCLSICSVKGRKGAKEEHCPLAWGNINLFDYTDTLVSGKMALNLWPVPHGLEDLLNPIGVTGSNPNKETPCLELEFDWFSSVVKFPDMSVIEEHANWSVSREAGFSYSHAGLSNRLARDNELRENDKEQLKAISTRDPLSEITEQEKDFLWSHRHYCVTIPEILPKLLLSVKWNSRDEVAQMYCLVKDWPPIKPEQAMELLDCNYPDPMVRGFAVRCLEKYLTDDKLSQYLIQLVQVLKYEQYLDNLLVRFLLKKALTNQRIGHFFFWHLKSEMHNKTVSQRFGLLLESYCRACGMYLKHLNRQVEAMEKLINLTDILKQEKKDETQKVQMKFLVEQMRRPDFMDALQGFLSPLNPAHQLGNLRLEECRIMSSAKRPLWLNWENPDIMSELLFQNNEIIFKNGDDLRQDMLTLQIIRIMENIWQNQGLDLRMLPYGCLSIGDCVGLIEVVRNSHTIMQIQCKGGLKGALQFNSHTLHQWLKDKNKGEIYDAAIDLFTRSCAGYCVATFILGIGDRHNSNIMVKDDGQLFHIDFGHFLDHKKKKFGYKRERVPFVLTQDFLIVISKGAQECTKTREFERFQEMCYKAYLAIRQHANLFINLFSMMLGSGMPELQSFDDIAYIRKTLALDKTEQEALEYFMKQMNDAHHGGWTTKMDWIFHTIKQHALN
Chain of PI3K-alpha (P27986 whole entry partner, species assumed): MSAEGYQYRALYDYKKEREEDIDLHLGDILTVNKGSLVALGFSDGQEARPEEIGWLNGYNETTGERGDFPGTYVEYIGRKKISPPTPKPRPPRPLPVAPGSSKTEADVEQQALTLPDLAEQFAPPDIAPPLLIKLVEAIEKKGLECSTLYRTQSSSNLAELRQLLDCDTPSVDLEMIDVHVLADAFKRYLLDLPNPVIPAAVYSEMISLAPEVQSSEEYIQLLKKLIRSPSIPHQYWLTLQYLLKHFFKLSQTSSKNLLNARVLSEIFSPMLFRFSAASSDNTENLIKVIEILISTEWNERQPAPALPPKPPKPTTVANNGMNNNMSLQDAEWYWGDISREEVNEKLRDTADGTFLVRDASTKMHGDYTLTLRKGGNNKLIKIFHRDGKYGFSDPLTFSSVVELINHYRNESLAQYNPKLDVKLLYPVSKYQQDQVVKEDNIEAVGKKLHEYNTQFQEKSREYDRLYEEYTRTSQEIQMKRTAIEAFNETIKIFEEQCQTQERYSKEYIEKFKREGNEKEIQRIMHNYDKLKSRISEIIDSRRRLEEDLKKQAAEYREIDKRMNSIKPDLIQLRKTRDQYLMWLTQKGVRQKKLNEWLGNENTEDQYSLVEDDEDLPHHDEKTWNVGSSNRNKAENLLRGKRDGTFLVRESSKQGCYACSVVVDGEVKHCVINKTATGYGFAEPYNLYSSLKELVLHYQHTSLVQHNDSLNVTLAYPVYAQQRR

IC50 (PI3K-alpha; read-out: PI3Kα Avg. IC50) [nM]	IC50 (PI3K-gamma) [nM]	IC50 (human TOR) [nM]	SMILES	IC50 (PI3K-alpha; PI3Kα Avg. IC50) [nM]
0.55	1.5	3	COc1cc(F)c2[nH]c(-c3c(C)nn(C)c3C)c(/C=C3\Oc4ccc(NC(=O)Nc5ccc(C(=O)N6CCOCC6)cc5)cc4C3=O)c2c1 [Compound 731, 1-[(2Z)-2-{[7-fluoro-5-methoxy-2-(1,3,5-trimethyl-1H-pyrazol-4-yl)-1H-indol-3-yl]methylidene}-3-oxo-2,3-dihydro-1-benzofuran-5-yl]-3-[4-(morpholin-4-ylcarbonyl)phenyl]urea]	–
0.33	1.9	1	COc1cc(F)c2[nH]c(-c3c(C)nn(C)c3C)c(/C=C3\Oc4ccc(NC(=O)Nc5ccc(C(=O)N6CCC(N(C)C)C6)cc5)cc4C3=O)c2c1 (stereo not drawn) [Compound 732, 1-(4-{[3-(dimethylamino)pyrrolidin-1-yl]carbonyl}phenyl)-3-[(2Z)-2-{[7-fluoro-5-methoxy-2-(1,3,5-trimethyl-1H-pyrazol-4-yl)-1H-indol-3-yl]methylidene}-3-oxo-2,3-dihydro-1-benzofuran-5-yl]urea]	–
0.3	3	< 1	COc1cc(F)c2[nH]c(-c3c(C)nn(C)c3C)c(/C=C3\Oc4ccc(NC(=O)Nc5ccc(C(=O)NCCN(C)C)cc5)cc4C3=O)c2c1 [Compound 733, N-[2-(dimethylamino)ethyl]-4-({[(2Z)-2-{[7-fluoro-5-methoxy-2-(1,3,5-trimethyl-1H-pyrazol-4-yl)-1H-indol-3-yl]methylidene}-3-oxo-2,3-dihydro-1-benzofuran-5-yl]carbamoyl}amino)benzamide]	–
310	3530	15000	O=C1/C(=C/c2c[nH]c3ccc(Br)cc23)Oc2c1ccc(O)c2O [Example 58, (2Z)-2-[(5-bromo-1H-indol-3-yl)methylene]-6,7-dihydroxy-1-benzofuran-3(2H)-one]	–
673	3770	16000	COc1ccc2[nH]cc(/C=C3\Oc4c(ccc(O)c4O)C3=O)c2c1 [Example 62, (2Z)-6,7-dihydroxy-2-[(5-methoxy-1H-indol-3-yl)methylene]-1-benzofuran-3(2H)-one]	–
384	3770	> 20000	Cc1ccc2[nH]cc(/C=C3\Oc4c(ccc(O)c4O)C3=O)c2c1 [Example 65, (2Z)-6,7-dihydroxy-2-[(5-methyl-1H-indol-3-yl)methylene]-1-benzofuran-3(2H)-one]	–
328	302	8400	O=C1/C(=C/c2c(-c3ccccc3)[nH]c3ccccc23)Oc2c(O)cccc21 [Example 67, (2Z)-7-hydroxy-2-[(2-phenyl-1H-indol-3-yl)methylene]-1-benzofuran-3(2H)-one]	–
399	3500	> 20000	COc1ccc2[nH]c(C)c(C=C3Oc4c(ccc(O)c4O)C3=O)c2c1 [Example 69, 6,7-dihydroxy-2-[(5-methoxy-2-methyl-1H-indol-3-yl)methylene]-1-benzofuran-3(2H)-one]	–
516	1200	2900	COc1ccc2[nH]cc(C=C3Oc4cccc(O)c4C3=O)c2c1 [Example 78, 4-hydroxy-2-[(5-methoxy-1H-indol-3-yl)methylene]-1-benzofuran-3(2H)-one]	–
202	1220	1590	COc1ccc2c(c1)c(C=C1Oc3c(ccc(O)c3O)C1=O)c(C)n2C [Example 90, 6,7-dihydroxy-2-[(5-methoxy-1,2-dimethyl-1H-indol-3-yl)methylene]-1-benzofuran-3(2H)-one]	–
1850	6660	4450	O=C1C(=Cc2c[nH]c3cc(Br)ccc23)Oc2cc(O)cc(O)c21 [Example 143, 2-[(6-bromo-1H-indol-3-yl)methylene]-4,6-dihydroxy-1-benzofuran-3(2H)-one]	–
2450	6000	1080	O=C1C(=Cc2c(-c3ccccc3)n(CCN3CCOCC3)c3ccccc23)Oc2cc(O)cc(O)c21 [Example 147, 4,6-dihydroxy-2-{[1-(2-morpholin-4-ylethyl)-2-phenyl-1H-indol-3-yl]methylene}-1-benzofuran-3(2H)-one]	–
2680	4710	500	CN(C)CCn1c(-c2ccccc2)c(C=C2Oc3cc(O)cc(O)c3C2=O)c2ccccc21 [Example 148, 2-({1-[2-(dimethylamino)ethyl]-2-phenyl-1H-indol-3-yl}methylene)-4,6-dihydroxy-1-benzofuran-3(2H)-one]	–
1590	2010	6150	O=C1C(=Cc2c(-c3ccccc3)n(Cc3ccccc3)c3ccccc23)Oc2cc(O)cc(O)c21 [Example 149, 2-[(1-benzyl-2-phenyl-1H-indol-3-yl)methylene]-4,6-dihydroxy-1-benzofuran-3(2H)-one]	–
2230	2190	6450	CC(C)Cn1c(-c2ccccc2)c(C=C2Oc3cc(O)cc(O)c3C2=O)c2ccccc21 [Example 150, 4,6-dihydroxy-2-[(1-isobutyl-2-phenyl-1H-indol-3-yl)methylene]-1-benzofuran-3(2H)-one]	–
2110	4220	710	COCCn1c(-c2ccccc2)c(C=C2Oc3cc(O)cc(O)c3C2=O)c2ccccc21 [Example 151, 4,6-dihydroxy-2-{[1-(2-methoxyethyl)-2-phenyl-1H-indol-3-yl]methylene}-1-benzofuran-3(2H)-one]	–
4180	4470	1450	O=C1C(=Cc2c(-c3ccccc3)n(CC3CC3)c3ccccc23)Oc2cc(O)cc(O)c21 [Example 152, 2-{[1-(cyclopropylmethyl)-2-phenyl-1H-indol-3-yl]methylene}-4,6-dihydroxy-1-benzofuran-3(2H)-one]	–
516	5350	80	N#CCCCn1c(-c2ccccc2)c(C=C2Oc3cc(O)cc(O)c3C2=O)c2ccccc21 [Example 155, 4-{3-[(4,6-dihydroxy-3-oxo-1-benzofuran-2(3H)-ylidene)methyl]-2-phenyl-1H-indol-1-yl}butanenitrile]	–
1290	6000	1600	CN(C)CCCn1c(-c2ccccc2)c(C=C2Oc3cc(O)cc(O)c3C2=O)c2ccccc21 [Example 156, 2-({1-[3-(dimethylamino)propyl]-2-phenyl-1H-indol-3-yl}methylene)-4,6-dihydroxy-1-benzofuran-3(2H)-one]	–
1520	2430	2500	O=C1C(=Cc2c(-c3ccccc3)n(CCN3CCCC3)c3ccccc23)Oc2cc(O)cc(O)c21 [Example 157, 4,6-dihydroxy-2-{[2-phenyl-1-(2-pyrrolidin-1-ylethyl)-1H-indol-3-yl]methylene}-1-benzofuran-3(2H)-one]	–
2280	4880	4600	O=C1C(=Cc2c(-c3ccccc3)n(CCC3CCNCC3)c3ccccc23)Oc2cc(O)cc(O)c21 [Example 158, 4,6-dihydroxy-2-{[2-phenyl-1-(2-piperidin-4-ylethyl)-1H-indol-3-yl]methylene}-1-benzofuran-3(2H)-one]	–
2860	5120	1800	CN1CCN(CCn2c(-c3ccccc3)c(C=C3Oc4cc(O)cc(O)c4C3=O)c3ccccc32)CC1 [Example 159, 4,6-dihydroxy-2-({1-[2-(4-methylpiperazin-1-yl)ethyl]-2-phenyl-1H-indol-3-yl}methylene)-1-benzofuran-3(2H)-one]	–
251	3850	5200	O=C1C(=Cc2c[nH]c3ccc(O)cc23)Oc2cc(O)cc(O)c21 [Example 164, 4,6-dihydroxy-2-[(5-hydroxy-1H-indol-3-yl)methylene]-1-benzofuran-3(2H)-one]	–
9500	> 10000	> 20000	O=C(O)c1ccc2[nH]cc(C=C3Oc4cc(O)cc(O)c4C3=O)c2c1 [Example 165, 3-[(4,6-dihydroxy-3-oxo-1-benzofuran-2(3H)-ylidene)methyl]-1H-indole-5-carboxylic acid]	–
2030	> 10000	> 20000	O=C1C(=Cc2c[nH]c3cccc(Cl)c23)Oc2cc(O)cc(O)c21 [Example 171, 2-[(4-chloro-1H-indol-3-yl)methylene]-4,6-dihydroxy-1-benzofuran-3(2H)-one]	–
766	> 10000	17000	O=C1C(=Cc2c[nH]c3c(Cl)cccc23)Oc2cc(O)cc(O)c21 [Example 173, 2-[(7-chloro-1H-indol-3-yl)methylene]-4,6-dihydroxy-1-benzofuran-3(2H)-one]	–

SMILES	IC50 (PI3K-alpha; read-out: PI3Kα Avg. IC50) [nM]	IC50 (PI3K-gamma) [nM]	IC50 (human TOR) [nM]	IC50 (PI3K-alpha; PI3Kα Avg. IC50) [nM]
O=C1/C(=C/c2c(-c3ccc(Cl)cc3)[nH]c3ccccc23)Oc2cc(O)cc(O)c21 [Example 44, (2Z)-2-{[2-(4-chlorophenyl)-1H-indol-3-yl]methylene}-4,6-dihydroxy-1-benzofuran-3(2H)-one]	–	1460	190	542
O=C1/C(=C/c2c(-c3ccc4ccccc4c3)[nH]c3ccccc23)Oc2cc(O)cc(O)c21 [Example 45, (2Z)-4,6-dihydroxy-2-{[2-(2-naphthyl)-1H-indol-3-yl]methylene}-1-benzofuran-3(2H)-one]	–	1820	280	799
O=C1/C(=C/c2c[nH]c3ccc(Cl)cc23)Oc2cc(O)cc(O)c21 [Example 60, (2Z)-2-[(5-chloro-1H-indol-3-yl)methylene]-4,6-dihydroxy-1-benzofuran-3(2H)-one]	–	3630	11000	492
